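A five-concentration, 48-hour dose response in 96-well plates underlies each endpoint, interpolated linearly between surrounding concentrations. GI50 is the concentration that inhibits growth by half. TGI denotes the concentration required for complete inhibition of growth.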
Legend:
Experiment in all cases: NCI-60 cell line screen, 48 h
ACHN renal = tested on: ACHN renal
SNB-19 CNS = tested on: SNB-19 CNS
KM12 colon = tested on: KM12 colon
HL-60(TB) leukemia = tested on: HL-60(TB) leukemia
HCC-2998 colon = tested on: HCC-2998 colon
OVCAR-4 ovarian = tested on: OVCAR-4 ovarian
NCI-H522 lung = tested on: NCI-H522 lung
HCT-116 colon = tested on: HCT-116 colon
UO-31 renal = tested on: UO-31 renal
K-562 leukemia = tested on: K-562 leukemia
LOX IMVI melanoma = tested on: LOX IMVI melanoma
SK-OV-3 ovarian = tested on: SK-OV-3 ovarian
HOP-62 NSCLC = tested on: HOP-62 NSCLC
COLO 205 colon = tested on: COLO 205 colon
HOP-92 NSCLC = tested on: HOP-92 NSCLC
DU-145 prostate = tested on: DU-145 prostate
MDA-MB-435 = tested on: MDA-MB-435
SK-MEL-28 melanoma = tested on: SK-MEL-28 melanoma
MOLT-4 leukemia = tested on: MOLT-4 leukemia
T-47D breast = tested on: T-47D breast
SK-MEL-5 melanoma = tested on: SK-MEL-5 melanoma
NCI-H460 lung = tested on: NCI-H460 lung
SN12C renal = tested on: SN12C renal
HS 578T breast = tested on: HS 578T breast
BT-549 breast = tested on: BT-549 breast
786-0 renal = tested on: 786-0 renal
MDA-MB-231 breast = tested on: MDA-MB-231 breast
A549 NSCLC = tested on: A549 NSCLC
SF-268 CNS = tested on: SF-268 CNS

O=C(Nc1ccccc1O)c1ccc(NS(=O)(=O)c2cccc3cccnc23)cc1
TGI (ACHN renal): 5.78 µM
GI50 (SNB-19 CNS): 2.89 µM
TGI (SNB-19 CNS): > 14.8 µM
GI50 (KM12 colon): 2.73 µM
TGI (KM12 colon): 7.29 µM
GI50 (HL-60(TB) leukemia): 1.03 µM
TGI (HL-60(TB) leukemia): 12.9 µM
GI50 (HCC-2998 colon): 1.59 µM
TGI (HCC-2998 colon): 5.23 µM
GI50 (OVCAR-4 ovarian): 2.24 µM
TGI (OVCAR-4 ovarian): 24.5 µM
GI50 (NCI-H522 lung): 0.67 µM
TGI (NCI-H522 lung): 3.47 µM
GI50 (HCT-116 colon): 0.752 µM
TGI (HCT-116 colon): 3.1 µM
GI50 (UO-31 renal): 0.73 µM
TGI (UO-31 renal): 4.14 µM
GI50 (K-562 leukemia): 0.971 µM
TGI (K-562 leukemia): > 25 µM
GI50 (LOX IMVI melanoma): 1.23 µM
TGI (LOX IMVI melanoma): 4.8 µM
GI50 (SK-OV-3 ovarian): 1.32 µM
TGI (SK-OV-3 ovarian): 6.17 µM
GI50 (HOP-62 NSCLC): 0.855 µM
TGI (HOP-62 NSCLC): 7.33 µM
GI50 (COLO 205 colon): 1.06 µM
TGI (COLO 205 colon): 4.01 µM
GI50 (HOP-92 NSCLC): 0.691 µM
TGI (HOP-92 NSCLC): 3.22 µM
GI50 (DU-145 prostate): 1.27 µM
TGI (DU-145 prostate): 9.55 µM
GI50 (MDA-MB-435): 0.806 µM
TGI (MDA-MB-435): 4.86 µM
GI50 (SK-MEL-28 melanoma): 0.834 µM
TGI (SK-MEL-28 melanoma): 4.91 µM
GI50 (MOLT-4 leukemia): 1.21 µM
TGI (MOLT-4 leukemia): > 25 µM
GI50 (T-47D breast): 0.559 µM
TGI (T-47D breast): 4.16 µM
GI50 (SK-MEL-5 melanoma): 0.838 µM
TGI (SK-MEL-5 melanoma): 3.42 µM
GI50 (NCI-H460 lung): 1.05 µM
TGI (NCI-H460 lung): 7.28 µM
GI50 (SN12C renal): 2.78 µM
TGI (SN12C renal): > 19.7 µM
GI50 (HS 578T breast): 0.787 µM
TGI (HS 578T breast): 11.8 µM
GI50 (BT-549 breast): 2.79 µM
TGI (BT-549 breast): 7.94 µM
GI50 (786-0 renal): 2.4 µM
TGI (786-0 renal): 6.4 µM
GI50 (MDA-MB-231 breast): 2.17 µM
TGI (MDA-MB-231 breast): 7.72 µM
GI50 (A549 NSCLC): 2.03 µM
TGI (A549 NSCLC): 9.02 µM
GI50 (SF-268 CNS): 1.54 µM
TGI (SF-268 CNS): 8.18 µM

— PubChem BioAssay (NCI)
